Experimental findings from patent US10920198B2, “Delta133p53beta and delta133p53gamma isoforms are biomarkers of cancer stem cells” (Centre National de la Recherche Scientifique (CNRS), priority 2015, dated 2021) are described below.

Each structure is given as a SMILES string.

Holding throughout (type): cell-based, human
One test has as its system MCF-7 cells. Nature of the test: Mammosphere formation in MCF-7 cells. The following applies: 50 ng/ml/day for 7 days. The procedure:
For mammosphere formation, 1000 cells/ml (500 cells/well) were plated in Ultra Low Cluster Plate, 24-well, Flat Bottom (Corning Inc) with MammoCult™ Medium enriched with MammoCult™ Proliferation Supplements, hydrocortisone and heparin (Stem Cell Technologies) and cultured for 15 days. For all mammosphere assays, at least three independent experiments for each condition were carried out and repeated 8-12 times. For self-renewal experiments, transfected cells were subjected to a first cycle of mammosphere formation. Upon 15 days of culture the created mammospheres were dissociated and cells were re-plated in identical conditions as for the first plating.

The test system of test [1] is c-Myc, Sox 2, Oct 3/4 and Nanog. Kind of test: Expression of pluripotency/reprogramming factors in MCF-7 cells (RT-qPCR, western blot). The text has this: (§1) The following antibodies were used for immunoblotting: anti-c-Myc (9E10 mouse hybridoma clone), -Nanog (sc-81961, Santa Cruz Biotechnology), -Oct 3/4 (sc-8630, Santa Cruz Biotechnology), -Sox 2 (sc-17320, Santa Cruz Biotechnology), -p53 (DO-1; sc-126 Santa Cruz Biotechnology), -p53 Sapu (Vojtesek et al. 1995), -α-tubulin (clone DM1A, Sigma-Aldrich), -β-actin (clone AC-74 Sigma-Aldrich), -p21 (sc-397 Santa Cruz Biotechnology) and -Flag (clone M2; Sigma-Aldrich). Secondary HRP-conjugated antibodies were from GE Healthcare. For luminescence quantification, cells were serially diluted and incubated with 0.5 mM D-luciferin (Sigma). Luminescence was quantified with a Polarstar Omega instrument (BMG LABTECH).
(§2) Total RNA was extracted (Qiagen) and reverse transcription (RT) was performed with 1-5 μg of total RNA using the SuperScript® III Reverse Transcriptase (Life Technologies) at 50° C. Levels of different mRNAs were quantified by real-time qPCR on a LightCycler480 apparatus (Roche). Briefly, 20 ng cDNA was amplified using 0.168 μM of each primer, 0.2 μM of probe (Table 4) and 1× LightCycler® 480 Probes Master Mix (Roche) for the p53 isoforms, or commercially available primers (Qiagen) and 1× LightCycler® 480 Sybr Green Master Mix (Roche) for the other genes. Data were normalized to the internal standard TBP. The different primers used and their corresponding sequences have been previously described (Bourdon et al., 2005). For each single-well amplification reaction, a threshold cycle (Ct) was calculated by using the LightCycler480 program (Roche) in the exponential phase of amplification. Relative changes in gene expression were determined using the 2ΔΔCt method and reported relative to a control. All quantification studies were performed with at least three independent experiments, repeated twice, for each condition. Data are presented as the arithmetic mean±SEM.
Background: In qPCR the cycle at which signal appears reflects the starting amount.

The subject of test [2] is Δ133p53 (α, β and γ) isoforms. Nature of the test: Expression of Δ133p53 isoforms in MCF-7 cells (RT-qPCR, western blot). The following applies: MCF-7, etoposide treatment; RT-qPCR and western blot.
Description: as §1
Total RNA was extracted (Qiagen) and reverse transcription (RT) was performed with 1-5 μg of total RNA using the SuperScript® III Reverse Transcriptase (Life Technologies) at 50° C. Levels of different mRNAs were quantified by real-time qPCR on a LightCycler480 apparatus (Roche). […] For each single-well amplification reaction, a threshold cycle (Ct) was calculated by using the LightCycler480 program (Roche) in the exponential phase of amplification. Relative changes in gene expression were determined using the 2ΔΔCt method and reported relative to a control. All quantification studies were performed with at least three independent experiments, repeated twice, for each condition. […]

The subject of test [3] is p53, p21. Kind of test: Western blot of p53 and p21 in MCF-7 cells after etoposide. The conditions noted are these: MCF-7, increasing concentrations of etoposide, 16 hours. As for the experimental part: (§3) The human breast cancer cell lines MCF-7, MDA-MB 231 […] and […] were grown in MEM supplemented with 10% FCS, sodium pyruvate and glutamine. Following viral infection, cells were used after 24-48 h or subjected to selection with 2 μg/ml puromycin (InvivoGen) or 300 μg/ml hygromycin B (Invitrogen) for two days. Etoposide treatment was performed with final doses of 12.5, 25 and 50 ng/ml for 16 h or 50 ng/ml/day for 7 days. […] Secondary HRP-conjugated antibodies were from GE Healthcare. For luminescence quantification, cells were serially diluted and incubated with 0.5 mM D-luciferin (Sigma). Luminescence was quantified with a Polarstar Omega instrument (BMG LABTECH).
A general note: Immunoblotting shows a protein as a band on a membrane.

Test [4] has as its system c-Myc, Oct 3/4, Nanog and Sox 2. Nature of the test: Expression of pluripotency/reprogramming factors in MDA-MB-231 D3H2LN cells (RT-qPCR, western blot). The conditions noted are these: MDA-MB-231 D3H2LN. As for the experimental part:
The human breast cancer cell lines MCF-7, MDA-MB 231 D3H2LN and C3LND were grown in MEM supplemented with 10% FCS, sodium pyruvate and glutamine. Following viral infection, cells were used after 24-48 h or subjected to selection with 2 μg/ml puromycin (InvivoGen) or 300 μg/ml hygromycin B (Invitrogen) for two days. Etoposide treatment was performed with final doses of 12.5, 25 and 50 ng/ml for 16 h or 50 ng/ml/day for 7 days.
as §1, §2

The subject of test [5] is Δ133p53 (α, β and γ) isoforms. Nature of the test: Expression of Δ133p53 isoforms in MDA-MB-231 D3H2LN cells after etoposide. The following applies: not dose-dependent. As for the experimental part: The human breast cancer cell lines MCF-7, MDA-MB 231 […] and […] were grown in MEM supplemented with 10% FCS, sodium pyruvate and glutamine. Following viral infection, cells were used after 24-48 h or subjected to selection with 2 μg/ml puromycin (InvivoGen) or 300 μg/ml hygromycin B (Invitrogen) for two days. Etoposide treatment was performed with final doses of 12.5, 25 and 50 ng/ml for 16 h or 50 ng/ml/day for 7 days.

Test [6] has as its system p53, p21. Nature of the test: Western blot of p53 and p21 in MDA-MB-231 D3H2LN cells after etoposide. The conditions noted are these: MDA-MB-231 D3H2LN (p53 R280K), increasing concentrations of etoposide. The procedure:
as §3

Take `COc1cc([C@@H]2c3cc4c(cc3[C@@H](O[C@@H]3O[C@@H]5CO[C@@H](C)O[C@H]5[C@H](O)[C@H]3O)[C@H]3COC(=O)[C@H]23)OCO4)cc(OC)c1O` [etoposide, reference compound]: the mammosphere formation result in the test on MCF-7 cells (Sh2-transduced MCF-7 cells) is “did not have any significant effect”; in the test with MCF-7 cells (control MCF-7 cells (active TAp53)) it was “significantly reduced”. The c-Myc expression result in test [1] (MCF-7, increasing concentrations of etoposide, western blot and RT-qPCR) is reported as “reduced”; in test [4] (increasing concentrations of etoposide), “significantly down-regulated”. The “Oct 3/4, Nanog and Sox 2 expression” value in test [1] (MCF-7, increasing doses of etoposide, RT-qPCR) was “strongly up-regulated in a dose-dependent manner”. Moreover, the Δ133p53 isoforms expression result in test [2] was “strongly up-regulated in a dose-dependent manner”. For the same molecule, the TAp53α level result in the test on p53, p21 [3] is “stabilization”. For the same molecule, the p21 expression result was “increased” with p53, p21 [3] and “only weakly increased” with p53, p21 [6]. Moreover, the “expression of Nanog, Sox 2 and Oct 3/4” value in test [4] (incubation with etoposide) was “up-regulated”. Further, in test [5], the “expression of Δ133p53 isoforms” value is “up-regulated”. In the test with p53, p21 [6], the TAp53 expression result is given as “did not affect”.
